Test results published in publication PMC4809294, “STP10 encodes a high-affinity monosaccharide transporter and is induced under low-glucose conditions in pollen tubes of Arabidopsis” (Journal of Experimental Botany, 2016).

How the values were obtained:
STP10 (AtSTP10) [1] = target: T1, STP10 (AtSTP10) (Arabidopsis thaliana, UniProt Q9LT15); assay: competition of […]glucose uptake in STP10-expressing yeast; also direct […]galactose uptake; type: cell-based; conditions: 10 µM [14C]glucose, 10-fold excess (100 µM) unlabelled competitor
T1 sequence (Q9LT15 1-514): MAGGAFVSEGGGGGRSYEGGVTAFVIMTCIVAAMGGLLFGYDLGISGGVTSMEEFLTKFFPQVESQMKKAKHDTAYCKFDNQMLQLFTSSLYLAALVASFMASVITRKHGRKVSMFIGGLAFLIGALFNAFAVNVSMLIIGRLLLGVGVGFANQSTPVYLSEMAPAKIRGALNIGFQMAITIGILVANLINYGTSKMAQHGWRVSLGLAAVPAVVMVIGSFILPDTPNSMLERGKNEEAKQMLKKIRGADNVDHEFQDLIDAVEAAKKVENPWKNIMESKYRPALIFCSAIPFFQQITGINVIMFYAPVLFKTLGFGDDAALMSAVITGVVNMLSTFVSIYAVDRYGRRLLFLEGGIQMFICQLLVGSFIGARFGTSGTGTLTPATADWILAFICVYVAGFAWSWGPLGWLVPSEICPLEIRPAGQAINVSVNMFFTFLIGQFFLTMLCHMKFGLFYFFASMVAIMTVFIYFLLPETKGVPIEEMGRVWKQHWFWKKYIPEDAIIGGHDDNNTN

STP10 (AtSTP10) [2] = target: T1, STP10 (AtSTP10); assay: competition of […]glucose uptake in STP10-expressing yeast; type: cell-based; conditions: 10 µM [14C]glucose, 10-fold excess (100 µM) unlabelled competitor

% remaining [14C]glucose uptake (STP10 (AtSTP10) [1]) [%] | % remaining [14C]glucose uptake (STP10 (AtSTP10) [2]) [%] | Structure (SMILES)
41 |  | OC[C@H]1OC(O)[C@H](O)[C@@H](O)[C@H]1O (some centres unmarked) [galactose]
 | 64 | OC[C@H]1OC(O)[C@@H](O)[C@@H](O)[C@@H]1O (some centres unmarked) [mannose]
